Assay results published in patent US20240216344A1, “THIAZOLIDINEDIONE ANALOGS FOR THE TREATMENT OF NAFLD AND METABOLIC DISEASES” (Cirius Therapeutics, Inc., priority 2019, published 2024).

System: patients with biopsy-proven NASH with fibrosis and no cirrhosis
Assay: EMMINENCE Phase 2b trial, safety and weight
Assay type: in vivo
Method: The primary efficacy endpoint was assessed at 12 months. Clinic visits were conducted at baseline, 1, 2, 3, 6, 9, and 12 months, followed 2 weeks later by a safety visit.
Safety: Safety was evaluated by adverse event incidence, and changes in clinical laboratory values, vital signs, and ECG parameters. Major adverse cardiovascular events (MACE) including death, non-fatal myocardial infarction (MI), unstable angina (USA) hospitalization, hospital admission for heart failure (HF), or non-fatal ischemic stroke; liver events including ascites, hepatic encephalopathy, variceal hemorrhage, hepatocellular carcinoma (HCC), or liver transplant; severe hypoglycemia; and bone fracture requiring surgery or hospitalization were adjudicated by an independent physician.
Using a modified intent-to-treat approach, treated patients were included for analysis in their randomly-assigned treatment groups. Participation of sites with serious GCP or quality concerns were terminated and their data excluded from the analyses. Post-baseline measures through 14 days after the last study drug dose were included. […] The central histopathologist's re-read of baseline biopsies was used as baseline. Patients who no longer qualified on re-read were included in the analyses. […] Stratification-adjusted risk differences adjusted similarly are provided. The primary analyses included only observed data; sensitivity analyses included multiply-imputing missing follow-up and considering missing follow-up as a non-responder. Each active dose was compared to placebo regarding changes in NASH CRN scores using analysis of covariance with adjustment for age, sex, diabetes mellitus, Vitamin E≥400 IU, baseline fibrosis F1 versus F2/F3, and the baseline value. Changes in laboratory markers from baseline to 6 months and to 12 months were analyzed similarly.

## COc1cccc(C(=O)COc2ccc(CC3SC(=O)NC3=O)cc2)c1 (centres unmarked) [MSDC-0602K]
62.5 mg
  Non-cardiac chest pain (SAE): 1 patients
  Subjects with TEAEs Leading to Study Drug Discontinuation: 2 (2.0) n (%)
  Subjects with TEAEs Related to Study Drug: 22 (22.2) n (%)
  Subjects with TEAEs Related to Study Drug and Leading to Study Drug Discontinuation: 0 (0.0) n (%)
  Subjects with any Treatment-Emergent Adverse Event (TEAE): 78 (78.8) n (%)
  TESAE: General disorders and administration site conditions: 1 ( 1.0) n (%)
  TESAE: Non-cardiac chest pain: 1 ( 1.0) n (%)
  adverse events of edema: 6 patients
  fractures requiring hospitalization or surgery: 1 patients
  treatment discontinuation rate: 9.1%
  unadjusted median weight change: 0.82 kg
125 mg
  Non-cardiac chest pain (SAE): 1 patients
  Subjects with TEAEs Leading to Study Drug Discontinuation: 3 (3.1) n (%)
  Subjects with TEAEs Related to Study Drug: 26 (26.5) n (%)
  Subjects with TEAEs Related to Study Drug and Leading to Study Drug Discontinuation: 1 (1.0) n (%)
  Subjects with any Treatment-Emergent Adverse Event (TEAE): 76 (77.6) n (%)
  TESAE: General disorders and administration site conditions: 2 (2.0) n (%)
  TESAE: Non-cardiac chest pain: 1 (1.0) n (%)
  adjudicated HF hospitalization: One
  adjudicated MACE: two
  adverse events of edema: 11 patients
  fractures requiring hospitalization or surgery: 1 patients
  treatment discontinuation rate: 12.2%
  unadjusted median weight change: 1.10 kg
  unrelated deaths: one
250 mg
  Subjects with TEAEs Leading to Study Drug Discontinuation: 1 (1.0) n (%)
  Subjects with TEAEs Related to Study Drug: 25 (24.8) n (%)
  Subjects with TEAEs Related to Study Drug and Leading to Study Drug Discontinuation: 0 (0.0) n (%)
  Subjects with any Treatment-Emergent Adverse Event (TEAE): 77 (76.2) n (%)
  TESAE: General disorders and administration site conditions: 1 (1.0) n (%)
  TESAE: Non-cardiac chest pain: 0 (0.0) n (%)
  adjudicated severe hypoglycemia event: One
  adverse events of edema: 7 patients
  fractures requiring hospitalization or surgery: 2 patients
  treatment discontinuation rate: 12.9%
  unadjusted median weight change: 2.28 kg
12 months daily oral
  tolerability: well tolerated
All groups
  adjudicated liver events: no adjudicated liver events occurred
